The values that follow come from US7741488B2, “Tetrahydropyridothiophenes as antiproliferative agents for the treatment of cancer” (4SC AG, priority 2005, dated 2010).

Each structure is given as a SMILES string. Some results are limits rather than exact numbers.

In assay [1] the test system is RKOp27 colon adenocarcinoma cells arrested by expression of ectopic p27Kip1. Description: Alamar Blue cell viability assay on RKO p27 cells arrested by Ponasterone A induced p27Kip1 (cell cycle specific mode of action). Type of assay: cell-based. Particulars: Homo sapiens, 72 hours, cells arrested by p27Kip1 induced with 10 μM Ponasterone A. How it is done: To determine the cell cycle specific mode of action, subclones of RKO colon adenocarcinoma cells (RKOp27 or RKOp21 as described by Schmidt et al. in Oncogene 19, 2423-2429; 2000) are seeded into 96 well flat bottom plates at a density of 16000 cells per well in a volume of 50 μl per well in DMEM growth medium with 10% FCS containing 10 μM Ponasterone A. 24 hours after seeding the 50 μl each of the compound dilutions in DMEM medium are added into each well of the 96 Well plate. Each compound dilution is tested as quadruplicates. Wells containing untreated control cells are filled with 50 μl DMEM medium containing 1% DMSO. The cells are then incubated with the substances for 72 hours at 37° C. in a humidified atmosphere containing 5% carbon dioxide. To determine the viability of the cells, 10 μl of an Alamar Blue solution (Biosource) are added and the fluorescence was measured at an extinction of 544 nm and an emission of 590 nm. For the calculation of the cell viability the emission value from untreated cells is set as 100% viability and the emission rates of treated cells are set in relation to the values of untreated cells. Viabilities are expressed as % values. Viability is compared of proliferating cells grown in the absence of the inducer Ponasterone A, versus viability of cells arrested by the expression of ectopic p27Kip1 induced by Ponasterone A.
A general note: Resazurin is reduced to fluorescent resorufin, in cell work by metabolically active cells.

Assay [2] relates to RKO (RKOp27) human colon adenocarcinoma cells. Description: Alamar Blue cell viability assay, anti-proliferative/cytotoxic activity on proliferating (uninduced) RKO p27 cells. The class given is cell-based. Conditions: RKOp27, 72 h, proliferating cells without inducer Ponasterone A. On the procedure:
The anti-proliferative/cytotoxic activity of the compounds described herein, can be tested on subclones of RKO (RKOp27) human colon adenocarcinoma cells (Schmidt et al., Oncogene 19, 2423-2429; 2000) using the Alamar Blue cell viability assay (described in O'Brien et al. Eur J Biochem 267, 5421-5426, 2000). The compounds are dissolved as 20 mM solutions in dimethylsulfoxide (DMSO) and subsequently diluted in semi-logarithmic steps. DMSO dilutions are further diluted 1:100 into Dulbecco's modified Eagle's medium (DMEM) containing 10% fetal calf serum to a final concentration twice as much as the final concentration in the test. RKO subclones are seeded into 96 well flat bottom plates at a density of 4000 cells per well in a volume of 50 μl per well. 24 hours after seeding the 50 μl each of the compound dilutions in DMEM medium are added into each well of the 96 Well plate. Each compound dilution is tested as quadruplicates. Wells containing untreated control cells are filled with 50 μl DMEM medium containing 1% DMSO. The cells are then incubated with the substances for 72 hours at 37° C. in a humidified atmosphere containing 5% carbon dioxide. To determine the viability of the cells, 10 μl of an Alamar Blue solution (Biosource) are added and the fluorescence is measured at an extinction of 544 nm and an emission of 590 nm. For the calculation of the cell viability the emission value from untreated cells is set as 100% viability and the emission rates of treated cells are set in relation to the values of untreated cells. Viabilities are expressed as % values.
The corresponding IC50 values of the compounds for anti-proliferative/cytotoxic activity are determined from the concentration-effect curves.
Representative IC50 values for anti-proliferation/cytotoxicity determined in the mentioned assay follow from the following table A, in which the numbers of the compound correspond to the numbers of the examples.

As usually defined, the IC50 is the point on the concentration scale where inhibition reaches its midpoint. Consider `COc1ccc(OC)c(CCC(=O)Nc2sc3c(c2C#N)CCN(C(=O)OCc2cccnc2)C3)c1` [Example 50, 3-Cyano-2-[3-(2,5-dimethoxy-phenyl)-propanoylamino]-4,7-dihydro-5H-thieno[2,3-c]pyridine-6-carboxylic acid pyridin-3-ylmethyl ester], for which the IC50 in assay [1] is above 100000 nM; in assay [2] it was 300 to 2000 nM.

For `COc1ccc(C)cc1CCC(=O)Nc1sc2c(c1C#N)CCN(C(=O)OCc1cccnc1)C2` [Example 51, 3-Cyano-2-[3-(2-methoxy-5-methyl-phenyl)-propanoylamino]-4,7-dihydro-5H-thieno[2,3-c]pyridine-6-carboxylic acid pyridin-3-ylmethyl ester], the IC50 in assay [1] was above 100000 nM; in assay [2], at most 300 nM.

`COc1ccc(C)cc1CCC(=O)Nc1sc2c(c1C#N)CCN(C(=O)OCC(O)CO)C2` (stereo not shown) [Example 52, 3-Cyano-2-[3-(2-methoxy-5-methyl-phenyl)-propanoylamino]-4,7-dihydro-5H-thieno[2,3-c]pyridine-6-carboxylic acid 2,3-dihydroxy-propyl ester]: the IC50 in assay [1] was above 100000 nM; in assay [2], 300 to 2000 nM.

For the molecule `COc1cccc(CCC(=O)Nc2sc3c(c2C#N)CCN(C(=O)OCCO)C3)c1` [Example 53, 3-Cyano-2-[3-(3-methoxy-phenyl)-propanoylamino]-4,7-dihydro-5H-thieno[2,3-c]pyridine-6-carboxylic acid 2-hydroxy-ethyl ester], the IC50 was above 100000 nM in assay [1] and 300 to 2000 nM in assay [2].

For the molecule `CCOC(=O)N1CCc2c(sc(NC(=O)C3CC3c3cc(C)ccc3OC)c2C#N)C1` (stereo not shown) [Example 54, 3-Cyano-2-({1-[2-(2-methoxy-5-methyl-phenyl)-cyclopropyl]-methanoyl}-amino)-4,7-dihydro-5H-thieno[2,3-c]pyridine-6-carboxylic acid ethyl ester], the IC50 in assay [1] is above 100000 nM; in assay [2], 300 to 2000 nM.

Consider `COc1ccc(OC)c(CCC(=O)Nc2sc3c(c2C#N)CCN(C(=O)OCCc2ccccn2)C3)c1` [Example 55, 3-Cyano-2-[3-(2,5-dimethoxy-phenyl)-propanoylamino]-4,7-dihydro-5H-thieno[2,3-c]pyridine-6-carboxylic acid 2-pyridin-2-yl-ethyl ester], for which the IC50 is above 100000 nM in assay [1] and 300 to 2000 nM in assay [2].

As to `COc1ccc(C)cc1CCC(=O)Nc1sc2c(c1C#N)CCN(C(=O)OCCN1CCOCC1)C2` [Example 56, 3-Cyano-2-[3-(2-methoxy-5-methyl-phenyl)-propanoylamino]-4,7-dihydro-5H-thieno[2,3-c]pyridine-6-carboxylic acid 2-morpholin-4-yl-ethyl ester], the IC50 in assay [1] was above 100000 nM; in assay [2], 300 to 2000 nM.

Take `COc1ccc(C)cc1CCC(=O)Nc1sc2c(c1C#N)CCN(C(=O)OCc1cnccc1OC)C2` [Example 57, 3-Cyano-2-[3-(2-methoxy-5-methyl-phenyl)-propanoylamino]-4,7-dihydro-5H-thieno[2,3-c]pyridine-6-carboxylic acid 4-methoxy-pyridin-3-ylmethyl ester]: the IC50 in assay [1] was at least 40000 nM; in assay [2], 300 to 2000 nM.

For `COc1cccc(CCC(=O)Nc2sc3c(c2C#N)CCN(C(=O)OCCn2ccnc2)C3)c1` [Example 58, 3-Cyano-2-[3-(3-methoxy-phenyl)-propanoylamino]-4,7-dihydro-5H-thieno[2,3-c]pyridine-6-carboxylic acid 2-imidazol-1-yl-ethyl ester], the IC50 was above 100000 nM in assay [1] and 300 to 2000 nM in assay [2].

Consider `COc1ccccc1CCC(=O)Nc1sc2c(c1C#N)CCN(C(=O)OCCc1cccnc1)C2` [Example 61, 3-Cyano-2-[3-(2-methoxy-phenyl)-propanoylamino]-4,7-dihydro-5H-thieno[2,3-c]pyridine-6-carboxylic acid 2-pyridin-3-yl-ethyl ester], for which the results for the IC50 in assay [1] and in assay [2] were above 100000 nM and at most 300 nM, respectively.

On to `COc1ccccc1CCC(=O)Nc1sc2c(c1C#N)CCN(C(=O)OCCc1ccncc1)C2` [Example 62, 3-Cyano-2-[3-(2-methoxy-phenyl)-propanoylamino]-4,7-dihydro-5H-thieno[2,3-c]pyridine-6-carboxylic acid 2-pyridin-4-yl-ethyl ester], for which the IC50 is above 100000 nM in assay [1] and at most 300 nM in assay [2].

For the molecule `COc1cccc(CCC(=O)Nc2sc3c(c2C#N)CCN(C(=O)OCCc2cccnc2)C3)c1` [Example 63, 3-Cyano-2-[3-(3-methoxy-phenyl)-propanoylamino]-4,7-dihydro-5H-thieno[2,3-c]pyridine-6-carboxylic acid 2-pyridin-3-yl-ethyl ester], the IC50 is at least 40000 nM in assay [1] and at most 300 nM in assay [2].

For the molecule `COc1cccc(CCC(=O)Nc2sc3c(c2C#N)CCN(C(=O)OCCc2ccncc2)C3)c1` [Example 64, 3-Cyano-2-[3-(3-methoxy-phenyl)-propanoylamino]-4,7-dihydro-5H-thieno[2,3-c]pyridine-6-carboxylic acid 2-pyridin-4-yl-ethyl ester], the results for the IC50 in assay [1] and in assay [2] were above 100000 nM and at most 300 nM, respectively.

Consider `COc1ccccc1CCC(=O)Nc1sc2c(c1C#N)CCN(C(=O)OCCn1ccnc1)C2` [Example 73, 3-Cyano-2-[3-(2-methoxy-phenyl)-propanoylamino]-4,7-dihydro-5H-thieno[2,3-c]pyridine-6-carboxylic acid 2-imidazol-1-yl-ethyl ester], for which the IC50 was above 100000 nM in assay [1] and at most 300 nM in assay [2].

Take `COc1ccc(C)cc1CCC(=O)Nc1sc2c(c1C#N)CCN(C(=O)OCCc1ccncc1)C2` [Example 106, 3-Cyano-2-[3-(2-methoxy-5-methyl-phenyl)-propanoylamino]-4,7-dihydro-5H-thieno[2,3-c]pyridine-6-carboxylic acid 2-pyridin-4-yl-ethyl ester]: the results for the IC50 in assay [1] and in assay [2] were above 100000 nM and at most 300 nM, respectively.

Take `COc1cccc(CCC(=O)Nc2sc3c(c2C#N)CCN(C(=O)OCc2nccn2C)C3)c1` [Example 119, 3-Cyano-2-[3-(3-methoxy-phenyl)-propanoylamino]-4,7-dihydro-5H-thieno[2,3-c]pyridine-6-carboxylic acid 1-methyl-1H-imidazol-2-ylmethyl ester]: the IC50 was above 100000 nM in assay [1] and at most 300 nM in assay [2].

Consider `COc1ccccc1CCC(=O)Nc1sc2c(c1C#N)CCN(C(=O)OCc1nccn1C)C2` [Example 122, 3-Cyano-2-[3-(2-methoxy-phenyl)-propanoylamino]-4,7-dihydro-5H-thieno[2,3-c]pyridine-6-carboxylic acid 1-methyl-1H-imidazol-2-ylmethyl ester], for which the IC50 in assay [1] is at least 10000 nM; in assay [2] it was at most 300 nM.

Turning to `COc1ccccc1CCC(=O)Nc1sc2c(c1C#N)CCN(C(=O)OCc1cncn1C)C2` [Example 123, 3-Cyano-2-[3-(2-methoxy-phenyl)-propanoylamino]-4,7-dihydro-5H-thieno[2,3-c]pyridine-6-carboxylic acid 3-methyl-3H-imidazol-4-ylmethyl ester], the IC50 in assay [1] is above 100000 nM; in assay [2] it was at most 300 nM.

For the molecule `COc1ccccc1CCC(=O)Nc1sc2c(c1C#N)CCN(C(=O)OCCn1ccnc1C)C2` [Example 124, 3-Cyano-2-[3-(2-methoxy-phenyl)-propanoylamino]-4,7-dihydro-5H-thieno[2,3-c]pyridine-6-carboxylic acid 2-(2-methyl-imidazol-1-yl)-ethyl ester], the values for the IC50 in assay [1] and in assay [2] were at least 10000 nM and at most 300 nM, respectively.

For `COc1ccc(C)cc1CCC(=O)Nc1sc2c(c1C#N)CCN(C(=O)OCc1cncn1C)C2` [Example 130, 3-Cyano-2-[3-(2-methoxy-5-methyl-phenyl)-propanoylamino]-4,7-dihydro-5H-thieno[2,3-c]pyridine-6-carboxylic acid 3-methyl-3H-imidazol-4-ylmethyl ester], the IC50 was at least 10000 nM in assay [1] and 300 to 2000 nM in assay [2].
